One may read the half-life as how long it takes for the measured level to halve. Read a low half-life as fast loss.

The text below walks through data of US7632816B2, “Treatment of Alzheimer amyloid deposition” (New York University, priority 2003, dated 2009).

Data set [1] is described as follows: Thioflavin-T assay of the peptides' own amyloid fibril formation. It counts as physicochemical. The conditions noted are these: 100 μmol/L peptide, 37° C., up to 10 days. The protocol:
All peptides were HFIP treated and reconstituted in 100 mM Tris buffer (pH 7.4) to obtain a 100 μmol/L concentration. […] Peptides were incubated over a period of 10 days at 37° C. Samples containing 15 μg of incubated peptides were taken at indicated intervals and fluorescence was measured as previously described in a Perkin-Elmer LS-50B fluorescence spectrophotometer (Perkin Elmer Instruments, Shelton, Conn.) (Wisniewski et al., “Acceleration of Alzheimer's Fibril Formation by Apolipoprotein E in vitro,” Am. J. Pathol. 145:1030-1035 (1994); Golabek et al., “The Interaction Between Apolipoprotein E and Alzheimer's Amyloid β-peptide is Dependent on β-peptide Conformation,” J. Biol. Chem. 271:10602-10606 (1996); which are hereby incorporated by reference in their entirety). The mean±standard deviation (“SD”) for three separate experiments was plotted in FIG. 1. Differences in amount of fibrils formed by the different peptides were evaluated by means of a repeated measures ANOVA, followed by a Tukey HSD post-hoc test using Statistica (version 6.1) (StatSoft Inc., Tulsa, Okla.).

Details of data set [2]: species or system mice. The conditions noted are these: mouse, in vivo. As to the method:
Blood samples were collected at given time points. Serum was separated from plasma by centrifugation at 10,000×g for 10 minutes. The trichloroacetic (TCA) acid precipitation method was used to assess the amount of radiolabeled peptide present in the serum (Yi et al., “Amyloid β40/42 Clearance Across the Blood-brain Barrier Following Intra-ventricular Injections in Wild-type, apoE Knock-out and Human apoE3 or E4 Expressing Transgenic Mice,” J. Alz. Dis. 3:23-30 (2001); Mackic et al., “Transport Across the Blood-brain Barrier and Differential Cerebrovascular Sequestration of Circulating Alzheimer's Amyloid-β Peptide in Aged Rhesus Versus Aged Squirrel Monkeys,” Vascul. Pharmacol. 38:303-313 (2002); which are hereby incorporated by reference in their entirety). A 30% stock solution of bovine albumin (Sigma, St. Louis, Mo.) in PBS was added to serum samples to obtain a final albumin solution of 5%, which was thoroughly mixed. Serum samples were then precipitated with TCA (final concentration of TCA was 15%) and centrifugated at 25,000×g in a Beckmann TL-100 Ultracentrifuge. Radioactivity was assessed in the pellet fraction using a Beckman 4000 gamma counter. Serum level of ^125I-Aβ12-28P following intranasal peptide administration was assessed in another six wild type C57BL6J mice. Under ketamine/xylazine anesthesia 80 μg of radiolabeled peptide (in 100 μl of PBS) was administered into the nasal cavity. Ten 10 μl drops were instilled into both nostrils alternatively over five minutes. Serum samples were collected and radioactivity in TCA precipitated pellets was measured as described above. The obtained data was transformed into percentage values compared to serum radioactivity following intravenous injections at t=0 as 100%. The mean±standard deviation from all tested animals was plotted in FIG. 4 and analyzed by a one phase exponential decay nonlinear regression fit algorithm using GraphPad Prism v4.0.
At t=0, the serum level was equal to about 40% of the level achieved after administration of the same amount of peptide intravenously.

The next data set concerns the target T1, Aβ1-42 (Homo sapiens, UniProt P05067).
T1 construct: made in house; host or cells: chemical peptide synthesis
The data set can be described thus: Thioflavin-T assay: peptide alone added to Aβ1-42 (no apoE). The following applies: same concentration of Aβ12-28P. It counts as biochemical.

Data set [3] is classed as physicochemical. The text has this: Circular dichroism (“CD”) was used to study the secondary structure of peptides in solution as described previously (Golabek et al., “The Interaction Between Apolipoprotein E and Alzheimer's Amyloid β-peptide is Dependent on β-peptide Conformation,” J. Biol. Chem. 271:10602-10606 (1996); Soto et al., “Alzheimer's Soluble β-amyloid is Conformationally Modified by Apolipoproteins in vitro,” Neuroreport 7:721-725 (1996); which are hereby incorporated by reference in their entirety). Aliquots of HFIP treated peptides were diluted in 5 mmol/L Tris buffer (pH 7.0) to obtain a peptide concentration of 100 μmol/L, and were incubated at 37° C. CD was measured at indicated intervals with t=0 being immediately after the peptide was reconstituted. Measurements were on a Jasco J-720 spectropolarimeter (Easton, Md.), equipped with a model CTC-344 circular temperature control system (Neslab Inc., Newington, N.H.), at final protein concentration of 0.15 mg/ml in a cell with 0.1 cm path length. The spectra were recorded at 1 nm intervals over the wavelength range of 190-260 nm at 15° C. Results were expressed as molar ellipticity in units of deg-cm^2-dmol^−1, and the data were analyzed by the Lincomb, convex constraints and neural network algorithms to obtain percentages of different types of secondary structures using Softsec software (Softwood Inc., PA.) (Perczel et al., “Analysis of Circular Dichroism Spectrum of Proteins Using the Convex Constraint Algorithm,” Anal. Biochem. 203:83-93 (1992); Manavalan et al., “Variable Selection Method Improves the Prediction of Protein Secondary Structure from Circular Dichroism,” Anal. Biochem. 167:76-85 (1987); Toumadje et al., “Extending CD Spectra of Proteins to 168nm Improves the Analysis for Secondary Structures,” Anal. Biochem. 200:321-331 (1992); Sreerma et al., “A Self-consistent Method for the Analysis of Protein Secondary Structure from Circular Dichroism,” Anal. Biochem. 209:32-44 (1993); which are hereby incorporated by reference in their entirety). […]

For data set [4] the following is noted: mouse.
Setting [5] is: CD immediately after reconstitution, 5 mmol/L Tris pH 7.0.

Structures are written as SMILES. “Also recorded” adds a separate entry of the source. Square brackets hold non-standard residues; d marks the D form. Peptide text beside a SMILES is read from it.

T1 sequence (P05067 672-713): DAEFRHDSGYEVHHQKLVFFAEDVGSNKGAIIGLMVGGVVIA

For the compound `CC(=O)N[C@@H](C(=O)N[C@H](Cc1c[nH]cn1)C(=O)N[C@H](Cc1c[nH]cn1)C(=O)N[C@H](CCC(N)=O)C(=O)N[C@H](CCCCN)C(=O)N[C@H](CC(C)C)C(=O)N1CCC[C@@H]1C(=O)N[C@H](Cc1ccccc1)C(=O)N[C@H](Cc1ccccc1)C(=O)N[C@H](C)C(=O)N[C@H](CCC(=O)O)C(=O)N[C@H](CC(=O)O)C(=O)N[C@@H](C(=O)NCC(=O)N[C@H](CO)C(=O)N[C@H](CC(N)=O)C(=O)N[C@H](CCCCN)C(N)=O)C(C)C)C(C)C` [Aβ12-28P] (Ac-[dV][dH][dH][dQ][dK][dL][dP][dF][dF][dA][dE][dD][dV]G[dS][dN][dK]-NH2), the “fibril formation (Thioflavin-T fluorescence)” value in data set [1] is recorded as “did not form any fibrils; also recorded: non-fibrillogenic; also recorded: No fibrils were formed”. Further, in data set [2], the “areas under the curve, intravenous versus intranasal” value is “no significant differences” and the “half-life after a single intravenous injection” value came to 1.03 h. For the same compound, the half-life in data set [2] (iv, half-life after a single intravenous injection) was 1.04 ± 0.3 h. For the same compound, the “effect of peptide alone on Aβ1-42 fibrillogenesis” value at Aβ1-42 is on record as “did not have any significant effect”. In addition, the β-sheet content in data set [3] (CD at time=0) worked out at 2%. In data set [3] (setting [5]), the “random coil, share of the total protein structure” value is on record as 59% and the “∝-helix, share of the total protein structure” value was 39%. In addition, the BBB permeability result in data set [4] was “BBB permeable”. The “share found in the capillary depleted brain fraction” value in data set [4] (in vivo) is listed as “More than 90%”.
